Source: patent publication EP0498941A2, “Peptide skeletal muscle relaxants” (BOC Health Care, Inc., priority 1991, dated 1992)

Test system: neuromuscular junction
Assay: Rabbit paw twitch analysis (neuromuscular blocking activity)
Format: in vivo, Male New Zealand white rabbits
Excerpt: In a large series of similar relaxants, the rabbit dose is typically 125% of that in mice. The mechanism of action was also confirmed in this test by observing train-of-four and tetanus fade, post-tetanic potentiation of single twitches and administration of the anticholinesterase drug neostigmine which reverses the relaxation. Reversibility, rapid onset and short duration are important factors to the anesthesiologist.
The following is a brief description of the methodologies used in rabbits to describe neuromuscular blocking activity of the subject compounds. A more detailed description of these methods is presented in "Microcomputer Use in Measuring Onset, Duration, and Recovery from Non-Depolarizing Skeletal Muscle Relaxants in Rabbits", P.D. Thut et al., Drug development Research 5:182, 1985.
Male New Zealand white rabbits weighing between 2.5 and 3.4 kg were anesthetized with pentobarbital (30 mg/kg) and placed on their backs upon a 40°C water filled temperature regulation pad. Following tracheostomy, the lungs were mechanically ventilated at 28 breaths per minute with room air, using an open system delivering 200 ml/stroke. This ventilation maintained pCO₂ at 38 […] and pO₂ at 85 mmHg. Direct arterial blood pressure was measured from the right common carotid artery. The test compounds were administered through a cannula placed in the marginal ear vein. Each foreleg was taped to a cushioned plate held in a femur clamp attached to the spinal board rack. The left centeral digit of each paw was connected to a force displacement transducer for measurement of muscle tension. Nerve stimulation was provided by pairs of pin electrodes placed on both sides of the ulnar nerve at the elbow of both forearms. The right ulnar nerve was stimulated at 1 Hz, 1 pps for .5 msec duration. The left ulnar nerve was similarly stimulated, every 15 seconds, with addition of interspersed trains-of-four and tetanizing stimuli. The parameters reported in Table II are: potency (ED90), which is the dose required to depress twitch tension to 10% of its control value; onset (T85%), which is the time from injection until 85% of the maximal drug effect is achieved; duration, which is the time from injection until the train-of-four has recovered to 75%; blood pressure (BP), which is the percentage change of pre-drug blood pressure; and heart rate (HR), which is the percentage change from pre-drug heart rate.

SMILES	BP (rabbit, in vivo) [% change]	Duration (rabbit, in vivo) [min]	ED9O (rabbit, in vivo) [mg/kg]	HR (rabbit, in vivo)	T85% (rabbit, in vivo) [s]	ED90 (Oryctolagus cuniculus, iv, potency: dose required to depress twitch tension to 10% of its control value, pentobarbital-anesthetized rabbits, marginal ear vein) [mg/kg]	T85% (onset: time from injection until 85% of the maximal drug effect is achieved, equi-efficacious dose) [s]	Duration (time from injection until the train-of-four has recovered to 75%, equi-efficacious dose) [min]
CC(=O)O[C@H]1C[C@@H]2CC[C@@H]3[C@H](CC[C@@]4(C)[C@H]3C[C@H]([N+]3(C)CCCCC3)[C@@H]4OC(C)=O)[C@@]2(C)C[C@@H]1[N+]1(C)CCCCC1 [pancuronium]	2.70	35.50	0.02	0.00 % change	147.50			
CC(=O)O[C@H]1C[C@@H]2CC[C@@H]3[C@H](CC[C@@]4(C)[C@H]3C[C@H]([N+]3(C)CCCCC3)[C@@H]4OC(C)=O)[C@@]2(C)C[C@@H]1N1CCCCC1 [vecuronium]	1.10	16.80	0.02	- 9.90 % change	97.30			
COc1ccc(CC2c3cc(OC)c(OC)cc3CC[N+]2(C)CCC(=O)OCCCCCOC(=O)CC[N+]2(C)CCc3cc(OC)c(OC)cc3C2Cc2ccc(OC)c(OC)c2)cc1OC (stereo not shown) [atracurium]						0.05	126.90	14.30
